Data from US20240335497A1, “PULSE PROTEIN-BASED COMPOSITION FOR ACTIVATING THE SYNTHESIS OF FGF19” (ROQUETTE FRERES, priority 2021, published 2024).

Test system: FGF19
Test: Expression of FGF19 mRNA in HT29 cells by RT-qPCR
Format: cell-based, human
Conditions: 6 h; for increase of expression of the FGF19 gene compared to control (carrier=DMSO): Example 5, HT29 cells; for increase of expression of the FGF19 gene compared with control (carrier=DMSO): Example 6, HT29 cells
From the text: For cell cultures, the HT29 (ECACC 91072201), HT29-MTX and Caco-2 lines derived from a human colorectal adenocarcinoma are used, conventionally used as cell lines representative of human enterocytes. The cells are systematically cultured in Dulbecco's Modified Eagle Medium (DMEM): 4.5 g/L of glucose supplemented with 1% of sodium pyruvate, 1% of penicillin-streptomycin and 10% of decomposed fetal-bovine serum (FBS) (Eurobio, Les Ulis, France). For the 12-well and 96-well plate experiments, the HT29 cells were seeded with a density of 7.5×10^4 cells/cm^2 with a medium changed every 2 days and the cells were exposed to different experimental conditions 2 days after confluence with a depleted complete medium in FBS. For the 12-well plates (Costar®, Cambridge, MA), Caco-2 and HT29-MTX cells were seeded in a ratio of 1:1 with a density of 2.5×10^4 cells/cm^2. The cells were cultured for 14 days in a complete medium to allow differentiation. The medium was changed in the two compartments every two days until exposure to the complete medium was depleted in the FBS. The integrity of the cellular monolayer was evaluated by measuring the transepithelial electrical resistance (TEER) using a Millicell-ERS (Millipore Corp., Billerica, MA). The cell culture was sourced from Dutscher (Issy-les-Moulineaux, France), unless specified otherwise.
The various conditions of the carrier as PD were dissolved in PBS and the agonists were dissolved in DMSO. After exposure, the cell supernatants were stored at −80° C. for the measurements of the secretion of FGF19 proteins, and the cell monolayers were maintained at −80° C. until total extraction of the RNA.
The effect of this exposure is measured by quantifying the messenger RNA of the FGF19 using the following protocol: the expression of the target genes was evaluated by quantifying their mRNA level in the cells by RT-qPCR. The total RNA was isolated using the TRI-Reagent solution (Sigma Aldrich). First-strand complementary DNA was synthesized from 1 μg of total RNA using the TAKARA Prime ScriptMC RT reagent kit (TAKARA Bio, Saint-Germain-en-Laye, France). The qPCR tests were carried out using the SYBR® Premix Ex-Taq™ kit (TAKARA Bio) on Rotor-Gene™ 6000 (Corbet Research, Mortlake, Australia). The mRNA levels of the human TATA binding protein (TBP) were used to normalize the data.
[FIG. 1] summarizes the results obtained. The HT29 cells were exposed to the various PDs alone or in combination with an FXR agonist to determine their potential capacity to increase the expression of the FGF19 gene. […]
The capacity of the RQ3 and RQ7 digestates to increase the level of expression of the FGF19 mRNA and also the production and secretion of proteins was then evaluated. […]

CC(C)c1onc(-c2c(Cl)cccc2Cl)c1COc1ccc(C=Cc2cccc(C(=O)O)c2)c(Cl)c1 [GW4064, 3-(2,6-Dichlorophenyl)-4-(3′-carboxy-2-chlorostilben-4-yl)oxymethyl-5-isopropylisoxazole]
increase of expression of the FGF19 gene compared to control (carrier=DMSO) (GW4064 0.1 μM alone): 2 times | increase of expression of the FGF19 gene compared to control (carrier=DMSO) (GW4064 1 μM alone): 6.2 times | increase of expression of the FGF19 gene compared with control (carrier=DMSO) (GW4064 0.1 μM alone): 2.3 times | increase of expression of the FGF19 gene compared with control (carrier=DMSO) (GW4064 1 μM alone): 6.6 times
